Consider 3 compounds from patent US9340535B2, “N-[5-(Aminosulfony1)-4-methyl-1,3-thiazol-2-yl]-N-methyl-2-[4-(2-pyridinyl)phenyl]acetamide mesylate monohydrate” (AiCuris GmbH & Co. KG, priority 2011, dated 2016).

Values after ≈ are worked out from the molar mass of the structure shown. Where two headings read alike, the source gives them in different places.

Series [1] is described as follows: Thermal analysis and polymorphic stability (DSC, TGA). The conditions noted are these: for DSC: Differential Scanning Calorimetry; for TGA: Thermogravimetric Analysis. The class given is physicochemical. The method, then:
Polymorphism refers to the ability of a solid material to exist in more than one crystal structure or solid form.
Upon mild heating (about 50° C. to 60° C.), the water content is reduced which would make these salts and the free base form extremely difficult to handle and to process during production and formulation. In contrast the hydrate of the mono mesylate salt is thermally stable and polymorphic stable at much higher temperatures of considerably above 100° C. as judged by TGA.
Moreover, exactly one mol equivalent water is incorporated into the crystal structure wherein the hydrogen atoms of the water molecule form hydrogen bridges with oxygen atoms of two different mesylate molecules. This well-defined position in the crystal lattice (see FIG. 3) is verified by the fact that water is released from the crystal only at high temperature, starting at 160° C.
(In general: Differential scanning calorimetry records heat flow against a reference as temperature is scanned.)

Series [2] is described as follows: Crystallinity by X-ray diffraction, microscopy. As to conditions: for Crystallinity: X-ray diffraction, microscopy. The format is physicochemical.
Series [3] can be described thus: Stability to dissociation: stirring for one week at room temperature.
Series [4] in a line: Stability to decomposition: storage at 90° C. for one week.
A short description of series [5]: Water solubility, solubility screening. As to conditions: for Water solubility: Solubility screening.
Series [6] can be described thus: Exposure in repeated dose 13-week toxicity study (free base). As to conditions: rat, in vivo, rats; for AUC(0-t): read-out: AUC(0-24).
Method: The exposure of rats to N-[5-(aminosulfonyl)-4-methyl-1,3-thiazol-2-yl]-N-methyl-2-[4-(2-pyridinyl)phenyl]acetamide in a repeated dose 13-week toxicity study performed with the free base N-[5-(aminosulfonyl)-4-methyl-1,3-thiazol-2-yl]-N-methyl-2-[4-(2-pyridinyl)phenyl]acetamide (free base) was compared to the exposures observed in a 26-week repeated dose toxicity study performed with the mesylate monohydrate. In both studies, the test items were administered as 0.5% (w/v) tylose suspensions, and the concentrations were adjusted to the equivalents of free base N-[5-(aminosulfonyl)-4-methyl-1,3-thiazol-2-yl]-N-methyl-2-[4-(2-pyridinyl)phenyl]acetamide.
The mark [7] stands for this setting: female, 10 mg/kg/day, F, 10 mg/kg/day, day 1, 13-week toxicity study.
[8] abbreviates: female, 50 mg/kg/day, F, 50 mg/kg/day, day 1, 13-week toxicity study.
Setting [9] is: female, 250 mg/kg/day, F, 250 mg/kg/day, day 1, 13-week toxicity study.
Setting [10] is: male, 10 mg/kg/day, M, 10 mg/kg/day, day 1, 13-week toxicity study.
Where [11] appears, read: male, 50 mg/kg/day, M, 50 mg/kg/day, day 1, 13-week toxicity study.
Setting [12] is: male, 250 mg/kg/day, M, 250 mg/kg/day, day 1, 13-week toxicity study.

In the case of `Cc1ccc(S(=O)(=O)O)cc1.Cc1nc(N(C)C(=O)Cc2ccc(-c3ccccn3)cc2)sc1S(N)(=O)=O` [1xTsOH], in series [1], the “Thermal stability of hydrate” value is on record as “labile”, the DSC entry is “loss of water before melting” and the TGA is given as 5.9%. The “Thermal and polymorphic stability of hydrates (in words)” value (shortened to “Thermal and polymorphic stability”) in series [1] (listed as monotosylate) is given as “low thermal stability”. Moreover, the “Thermal and polymorphic stability” value in series [1] (listed as tosylate) was “low thermal and low polymorphic stability”. Also, the Crystallinity entry in series [2] is reported as “+”. In addition, the Stability to dissociation result in series [3] is recorded as “++”. Further, the Stability to decomposition entry in series [4] was “−”. The Water solubility in series [5] amounted to 50 mg/100 mL.

As to `Cc1nc(N(C)C(=O)Cc2ccc(-c3ccccn3)cc2)sc1S(N)(=O)=O` [Free base, N-[5-(aminosulfonyl)-4-methyl-1,3-thiazol-2-yl]-N-methyl-2-[4-(2-pyridinyl)phenyl]acetamide], the “Thermal and polymorphic stability” value in series [1] is “low thermal stability”; in series [1] (listed as free base form), “low thermal and low polymorphic stability”. The “Thermal stability of hydrate” value in series [1] is recorded as “labile”. For the same compound, the DSC result in series [1] was “loss of water before melting”. The compound also came in with a TGA in series [1] of 8.8%. The Cmax in series [6] (setting [7]) amounted to 15300 ng/mL; in series [6] (female, 10 mg/kg/day, F, week 13, 13-week toxicity study) it was 25800 ng/mL; in series [6] (setting [8]) it was 35300 ng/mL; in series [6] (female, 50 mg/kg/day, F, week 13, 13-week toxicity study) it was 40500 ng/mL; in series [6] (setting [9]) it was 68900 ng/mL; in series [6] (female, 250 mg/kg/day, F, week 13, 13-week toxicity study) it was 83000 ng/mL. The Cmax in series [6] (setting [10]) amounted to 13300 ng/mL; in series [6] (male, 10 mg/kg/day, M, week 13, 13-week toxicity study) it was 15000 ng/mL; in series [6] (setting [11]) it was 30600 ng/mL; in series [6] (male, 50 mg/kg/day, M, week 13, 13-week toxicity study), 30000 ng/mL; in series [6] (setting [12]) it was 53900 ng/mL; in series [6] (male, 250 mg/kg/day, M, week 13, 13-week toxicity study) it was 62800 ng/mL. Further, the AUC(0-t) in series [6] (setting [7]) is 159 µg·h/mL; in series [6] (female, 10 mg/kg/day, F, 10 mg/kg/day, week 13, 13-week toxicity study) it was 211 µg·h/mL; in series [6] (setting [8]) it was 409 µg·h/mL; in series [6] (female, 50 mg/kg/day, F, 50 mg/kg/day, week 13, 13-week toxicity study), 455 µg·h/mL; in series [6] (setting [9]), 966 µg·h/mL; in series [6] (female, 250 mg/kg/day, F, 250 mg/kg/day, week 13, 13-week toxicity study) it was 1170 µg·h/mL. Besides, the AUC(0-t) in series [6] (setting [10]) was found to be 87.9 µg·h/mL; in series [6] (male, 10 mg/kg/day, M, 10 mg/kg/day, week 13, 13-week toxicity study), 133 µg·h/mL; in series [6] (setting [11]), 248 µg·h/mL; in series [6] (male, 50 mg/kg/day, M, 50 mg/kg/day, week 13, 13-week toxicity study) it was 332 µg·h/mL; in series [6] (setting [12]) it was 567 µg·h/mL; in series [6] (male, 250 mg/kg/day, M, 250 mg/kg/day, week 13, 13-week toxicity study), 661 µg·h/mL. For the same compound, the Crystallinity result in series [2] is “+”. For the same compound, the Stability to decomposition result in series [4] is “++”. The amount in solution in series [5] (water) (solubility) came to 2 µg/mL (≈ 4.97 µM).

For the compound `Cc1nc(N(C)C(=O)Cc2ccc(-c3ccccn3)cc2)sc1S(N)(=O)=O.Cl` [1xHCl], in series [1], the “Thermal and polymorphic stability” value was “low thermal and low polymorphic stability”; the “Thermal stability of hydrate” value was “labile”; the DSC result is “loss of water before melting”; the TGA is given as 2.1%. Moreover, the “Crystallinity of the hydrate during storage” value in series [2] (during storage) is “decrease of crystallinity”. Also, the Stability to dissociation entry in series [3] was “++”. Further, the Stability to decomposition result in series [4] is “++”. Further, the Water solubility in series [5] was determined as 39.4 mg/100 mL.

In general, Cmax refers to the highest concentration seen after dosing. The solubility is the dissolved amount per volume that the medium holds.
